# According to PubChem BioAssay (NCI):
#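 Abbreviation: GI50, concentration required for 50% inhibition of growth. TGI is the concentration that stops growth completely.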
# What was measured:
# Test in all cases: DTP human tumour cell line panel, 384-well format
# [1] = test system: TK-10 renal
# [2] = test system: MOLT-4 leukemia
# [3] = test system: BT-549 breast
# [4] = test system: SF-268 CNS
# [5] = test system: HOP-92 NSCLC
# [6] = test system: SF-295 CNS
# [7] = test system: SK-MEL-28 melanoma
# [8] = test system: CAKI-1 renal
# [9] = test system: SF-539 CNS
# [10] = test system: ACHN renal
# [11] = test system: UACC-62 melanoma
# [12] = test system: EKVX NSCLC
# [13] = test system: SK-MEL-2 melanoma
# [14] = test system: NCI-H522 lung
# [15] = test system: SK-OV-3 ovarian
# [16] = test system: K-562 leukemia
# [17] = test system: MDA-MB-435 melanoma
# [18] = test system: M14 melanoma
# [19] = test system: OVCAR-4 ovarian
# [20] = test system: T-47D breast
# [21] = test system: KM12 colon
# [22] = test system: MDA-MB-231 breast
# [23] = test system: MDA-MB-468 breast
# [24] = test system: NCI-H460 NSCLC
# [25] = test system: OVCAR-8 ovarian
# [26] = test system: SNB-75 CNS
# [27] = test system: SNB-19 CNS
# [28] = test system: DU-145 prostate
# [29] = test system: HS 578T breast
# [30] = test system: U251 glioblastoma
# [31] = test system: NCI-H322M lung
# [32] = test system: 786-0 renal
# [33] = test system: SK-MEL-5 melanoma
# [34] = test system: HCT-116 colon
# [35] = test system: HCT-15 colon
# [36] = test system: NCI-H226 lung
# [37] = test system: UO-31 renal
# [38] = test system: UACC-257 melanoma
# [39] = test system: PC-3 prostate
# [40] = test system: HT29 colon
# [41] = test system: HOP-62 NSCLC
# [42] = test system: SR leukemia
# [43] = test system: MALME-3M melanoma
# [44] = test system: SW-620 colon
# [45] = test system: MCF7 breast
# [46] = test system: SN12C renal
# [47] = test system: A498 renal
# [48] = test system: COLO 205 colon
# [49] = test system: A549 NSCLC
# [50] = test system: OVCAR-3 ovarian
# [51] = test system: RXF 393 renal
# [52] = test system: OVCAR-5 ovarian
# [53] = test system: HL-60(TB) leukemia
# [54] = test system: NCI-H23 lung
# [55] = test system: IGROV1 ovarian
structure (smiles),measurement,setting,value
CN[C@@H](C)C(=O)N[C@H](C(=O)N1CCC[C@H]1C(=O)Nc1sc(-c2ncco2)nc1-c1ccccc1)C1CCCCC1,GI50,[1],11.3 µM
same,TGI,[1],24.4 µM
same,GI50,[2],4.34 µM
same,TGI,[2],14.9 µM
same,GI50,[3],0.234 µM
same,TGI,[3],2.32 µM
same,GI50,[4],10.4 µM
same,TGI,[4],22.3 µM
same,GI50,[5],9.99 µM
same,TGI,[5],21.8 µM
same,GI50,[6],3.72 µM
same,TGI,[6],14.7 µM
same,GI50,[7],2.64 µM
same,TGI,[7],16.7 µM
same,GI50,[8],11.2 µM
same,TGI,[8],23.3 µM
same,GI50,[9],3.44 µM
same,TGI,[9],17.3 µM
same,GI50,[10],4.35 µM
same,TGI,[10],17.2 µM
same,GI50,[11],0.781 µM
same,TGI,[11],10.9 µM
same,GI50,[12],10.7 µM
same,TGI,[12],32.2 µM
same,GI50,[13],< 0.01 µM
same,TGI,[13],1.04 µM
same,GI50,[14],0.0966 µM
same,TGI,[14],1.08 µM
same,GI50,[15],< 0.01 µM
same,TGI,[15],0.064 µM
same,GI50,[16],2.18 µM
same,TGI,[16],16.6 µM
same,GI50,[17],1.6 µM
same,TGI,[17],13.5 µM
same,GI50,[18],8.12 µM
same,TGI,[18],20.8 µM
same,GI50,[19],< 0.01 µM
same,GI50,[20],16.7 µM
same,TGI,[20],30.5 µM
same,GI50,[21],1.21 µM
same,TGI,[21],10.5 µM
same,GI50,[22],0.14 µM
same,TGI,[22],0.909 µM
same,GI50,[23],0.476 µM
same,TGI,[23],5.23 µM
same,GI50,[24],7.4 µM
same,TGI,[24],21.3 µM
same,GI50,[25],1.02 µM
same,TGI,[25],2.87 µM
same,GI50,[26],2.52 µM
same,TGI,[26],11.1 µM
same,GI50,[27],18.6 µM
same,TGI,[27],61.4 µM
same,GI50,[28],1.03 µM
same,TGI,[28],10.5 µM
same,GI50,[29],0.609 µM
same,TGI,[29],15.4 µM
same,GI50,[30],5.48 µM
same,TGI,[30],19.3 µM
same,GI50,[31],13.5 µM
same,TGI,[31],39.6 µM
same,GI50,[32],6.69 µM
same,TGI,[32],19.9 µM
same,GI50,[33],0.114 µM
same,TGI,[33],1.38 µM
same,GI50,[34],0.43 µM
same,TGI,[34],14.3 µM
same,GI50,[35],8.22 µM
same,TGI,[35],21.4 µM
same,GI50,[36],5.52 µM
same,TGI,[36],27.5 µM
same,GI50,[37],15.9 µM
same,TGI,[37],29.6 µM
same,GI50,[38],2.27 µM
same,TGI,[38],13.3 µM
same,GI50,[39],6.22 µM
same,TGI,[39],19.8 µM
same,GI50,[40],5.63 µM
same,TGI,[40],18.1 µM
same,GI50,[41],1.08 µM
same,TGI,[41],2.68 µM
same,GI50,[42],0.182 µM
same,TGI,[42],0.592 µM
same,GI50,[43],0.0256 µM
same,TGI,[43],0.74 µM
same,GI50,[44],3.66 µM
same,TGI,[44],17.9 µM
same,GI50,[45],0.16 µM
same,TGI,[45],1.18 µM
same,GI50,[46],11 µM
same,TGI,[46],23.6 µM
same,GI50,[47],5.13 µM
same,TGI,[47],17.9 µM
same,GI50,[48],2.05 µM
same,TGI,[48],16 µM
same,GI50,[49],11.6 µM
same,TGI,[49],> 100 µM
same,GI50,[50],1.36 µM
same,TGI,[50],15.5 µM
same,GI50,[51],< 0.01 µM
same,TGI,[51],0.0402 µM
same,GI50,[52],10.7 µM
same,TGI,[52],34.2 µM
same,GI50,[53],0.0148 µM
same,TGI,[53],0.584 µM
same,GI50,[54],0.159 µM
same,TGI,[54],1.28 µM
same,GI50,[55],10.5 µM
same,TGI,[55],24.5 µM
